Assay results reported in patent US20180264001A1 (Teva Pharmaceuticals International GmbH, priority 2015, published 2018).

Conditions: Canine plasma +1% Tocophersolan, 37° C.
Procedure: Samples were protected from light under constant agitation using a vortex mixer. The stability of the API under these conditions was assessed at timed intervals (T=0, 2, 4, 21, 24 hours and 2 and 3 days).

## Cc1cc2c(s1)Nc1ccccc1N=C2N1CCN(C)CC1.O.O=C(O)c1cc2ccccc2c(Cc2c(O)c(C(=O)O)cc3ccccc23)c1O [olanzapine pamoate monohydrate]
  Concentration (saturated solubility): 817.47 µg/mL
